According to publication PMC10018501 (ACS Omega, 2023):
Several values for one entry are separate records, joined by “and”; a condition that tells them apart may be missing. Equal values may be shown once.

Columns and labels:
hAChE [1] = target: T1, hAChE (Homo sapiens, UniProt P22303); test: In vitro hAChE inhibition assay; format: biochemical
hBChE = hBChE (Equus caballus, UniProt P81908); test: In vitro hBChE inhibition assay; format: biochemical, human
hBACE-1 = hBACE-1 (Homo sapiens, UniProt P56817); test: biochemical; conditions: IC50 ± SEM hBACE-1, n = 3
Chain of hBACE-1 (P56817 46-501): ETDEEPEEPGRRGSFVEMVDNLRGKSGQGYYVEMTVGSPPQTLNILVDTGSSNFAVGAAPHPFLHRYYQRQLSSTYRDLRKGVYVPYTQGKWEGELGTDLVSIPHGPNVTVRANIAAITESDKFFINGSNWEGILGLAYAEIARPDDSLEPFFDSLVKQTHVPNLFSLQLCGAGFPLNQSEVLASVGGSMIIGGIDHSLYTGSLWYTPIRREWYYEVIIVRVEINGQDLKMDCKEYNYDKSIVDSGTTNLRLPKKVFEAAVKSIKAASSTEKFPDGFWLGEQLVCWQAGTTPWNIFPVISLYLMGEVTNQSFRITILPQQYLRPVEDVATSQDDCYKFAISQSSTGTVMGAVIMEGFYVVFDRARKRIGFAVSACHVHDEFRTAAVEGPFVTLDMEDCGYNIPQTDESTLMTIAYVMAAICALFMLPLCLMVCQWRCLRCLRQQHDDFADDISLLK

hAChE [2] = target: T1, hAChE; test: hAChE enzyme kinetics; format: biochemical; conditions: substrate ATCI
[3] = target: PAS-AChE (hAChE-PAS region) (Homo sapiens, UniProt P22303); test: Propidium iodide displacement assay; format: binding
Chain of PAS-AChE (hAChE-PAS region) (P22303 32-617 isoform P22303-2 limits assumed): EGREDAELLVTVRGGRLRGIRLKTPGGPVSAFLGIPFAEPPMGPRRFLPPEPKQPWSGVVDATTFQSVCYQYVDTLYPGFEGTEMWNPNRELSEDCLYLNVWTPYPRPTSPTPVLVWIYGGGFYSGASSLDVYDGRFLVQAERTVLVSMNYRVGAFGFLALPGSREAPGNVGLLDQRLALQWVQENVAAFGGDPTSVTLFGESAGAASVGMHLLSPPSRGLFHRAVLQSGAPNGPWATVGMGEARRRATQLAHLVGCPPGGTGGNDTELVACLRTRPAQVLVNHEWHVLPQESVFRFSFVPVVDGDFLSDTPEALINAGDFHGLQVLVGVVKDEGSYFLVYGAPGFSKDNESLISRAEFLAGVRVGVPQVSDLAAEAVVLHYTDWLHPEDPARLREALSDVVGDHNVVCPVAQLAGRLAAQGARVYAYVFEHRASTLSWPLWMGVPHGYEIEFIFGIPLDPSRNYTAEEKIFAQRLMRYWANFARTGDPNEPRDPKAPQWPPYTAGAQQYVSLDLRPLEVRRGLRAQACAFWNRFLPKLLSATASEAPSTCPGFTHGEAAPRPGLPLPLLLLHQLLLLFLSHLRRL

[4] = system: differentiated SH-SY5Y cells; test: Neurotoxicity estimation; format: cell-based; conditions: 10, 20, 40 and 80 μM, 24 h
[5] = system: nondifferentiated SH-SY5Y cells; test: Neuroprotective estimation; format: cell-based; conditions: Homo sapiens, 24 h, read-out: cell viability
Aβ1–42 = Aβ1–42 (Homo sapiens, UniProt P05067); test: Self-induced Aβ aggregation inhibition thioflavin T assay; format: biochemical; conditions: compound 5, 10 and 20 μM; Aβ 10 μM
Chain of Aβ1–42 (P05067 672-713): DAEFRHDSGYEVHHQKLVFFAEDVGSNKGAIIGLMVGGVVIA

Aβ1–42 with hAChE = Aβ1–42 with hAChE (Homo sapiens, UniProt P22303); test: hAChE-induced Aβ aggregation inhibition thioflavin T assay; format: biochemical; conditions: compound 5, 10 and 20 μM; Aβ 10 μM
Chain of Aβ1–42 with hAChE (P22303 32-588 isoform P22303-2): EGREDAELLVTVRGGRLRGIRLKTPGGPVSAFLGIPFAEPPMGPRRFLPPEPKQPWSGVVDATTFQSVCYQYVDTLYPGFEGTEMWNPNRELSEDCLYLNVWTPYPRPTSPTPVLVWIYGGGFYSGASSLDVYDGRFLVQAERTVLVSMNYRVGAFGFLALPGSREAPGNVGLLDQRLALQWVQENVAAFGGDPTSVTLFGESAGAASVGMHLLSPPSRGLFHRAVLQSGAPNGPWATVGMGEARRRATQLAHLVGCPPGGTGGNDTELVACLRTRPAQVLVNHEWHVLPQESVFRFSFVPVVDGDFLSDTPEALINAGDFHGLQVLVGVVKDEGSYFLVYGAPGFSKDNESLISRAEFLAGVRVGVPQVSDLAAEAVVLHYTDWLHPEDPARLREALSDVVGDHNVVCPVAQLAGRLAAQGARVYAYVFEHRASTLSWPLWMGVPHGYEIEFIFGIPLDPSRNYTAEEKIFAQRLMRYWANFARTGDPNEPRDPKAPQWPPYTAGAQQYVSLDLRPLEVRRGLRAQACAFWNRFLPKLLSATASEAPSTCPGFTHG

female Wistar rats = test: Acute oral toxicity study; format: in vivo
[6] = system: scopolamine-induced rat model; test: Scopolamine-induced Y-maze test; format: in vivo, Wistar rats; conditions: SD-6 2.5, 5, 10 mg/kg p.o.; donepezil 5 mg/kg p.o.; 7 days; vs scopolamine group
AChE = test: Ex vivo AChE estimation in hippocampal homogenate; set-up: species or system rat; conditions: scopolamine-treated rats; SD-6 2.5, 5, 10 mg/kg
acetylcholine (ACh) = test: Ex vivo ACh estimation; format: in vivo, rat; conditions: scopolamine-treated rats; SD-6 2.5, 5, 10 mg/kg
malonaldehyde (MDA) = test: Ex vivo MDA estimation; format: in vivo, rat; conditions: scopolamine-treated rats; SD-6 2.5, 5, 10 mg/kg; donepezil 5 mg/kg
[7] = system: superoxide dismutase (SOD); test: Ex vivo SOD assay; format: in vivo, rat; conditions: scopolamine-treated rats; SD-6 2.5, 5, 10 mg/kg; donepezil 5 mg/kg
glutathione (GSH) = test: Ex vivo reduced glutathione; format: in vivo, rat; conditions: scopolamine-treated rats; SD-6 2.5, 5, 10 mg/kg; donepezil 5 mg/kg
catalase = test: Ex vivo catalase assay; format: in vivo, rat; conditions: scopolamine-treated rats; SD-6 2.5, 5, 10 mg/kg; donepezil 5 mg/kg
[8] = system: hippocampal brain (dentate gyrus) neurons; test: Brain tissue histopathology; format: in vivo, rat; conditions: Aβ1–42 rats, SD-6 10 mg/kg, donepezil 5 mg/kg
[9] = n = 3, mean ± SEM
in vitro = conditions: PAMPA, pH 7.4
[10] = system: ICV Aβ1–42-induced rat model; test: Aβ-induced Morris water maze test; conditions: SD-6 10 mg/kg, donepezil 5 mg/kg, orally 9 days; vs Aβ group

T1 sequence (P22303 32-617 isoform P22303-2 limits assumed): as the sequence (P22303 32-617 isoform P22303-2 limits assumed) above
Chain of hBChE (P81908 whole entry): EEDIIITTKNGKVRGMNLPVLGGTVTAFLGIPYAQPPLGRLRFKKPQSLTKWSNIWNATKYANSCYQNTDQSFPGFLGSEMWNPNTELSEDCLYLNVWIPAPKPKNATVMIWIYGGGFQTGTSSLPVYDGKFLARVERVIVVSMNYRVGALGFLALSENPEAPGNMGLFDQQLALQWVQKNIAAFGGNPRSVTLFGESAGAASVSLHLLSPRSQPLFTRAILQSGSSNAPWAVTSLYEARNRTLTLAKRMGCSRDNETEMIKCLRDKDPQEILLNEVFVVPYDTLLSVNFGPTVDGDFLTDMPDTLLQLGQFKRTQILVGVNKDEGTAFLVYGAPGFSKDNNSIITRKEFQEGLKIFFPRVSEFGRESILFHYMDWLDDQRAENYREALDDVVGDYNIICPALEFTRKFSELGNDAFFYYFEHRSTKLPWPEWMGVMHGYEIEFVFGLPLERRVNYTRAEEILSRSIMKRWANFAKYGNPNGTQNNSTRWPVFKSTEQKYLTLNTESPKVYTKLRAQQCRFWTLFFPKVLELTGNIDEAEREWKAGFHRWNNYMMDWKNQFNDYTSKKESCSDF

For `S=c1oc(-c2ccccc2)nn1CN1CCN(Cc2ccccc2)CC1` [SD-6, 3-((4-Benzylpiperazin-1-yl)methyl)-5-phenyl-1,3,4-oxadiazole-2(3H)-thione], the IC50 (hAChE [1]; IC50 ± SEM hAChE, n = 3) was 0.907 ± 0.011 µM, the IC50 (hAChE [1]; hAChE inhibitory activity (good/moderate/poor), class in words) was < 1 µM and the IC50 (hBChE) was 1.58 ± 0.037 µM. For the same compound, the IC50 (hBACE-1) was 0.753 ± 0.018 µM, the “type of inhibition (Lineweaver–Burk plot)” value (hAChE [2]) was “mixed-type noncompetitive” and the “PAS-AChE propidium iodide displacement (%)” value ([3]; [I] = 10 μM) was 27.3% and 27.316 ± 1.208%. For the same compound, the “PAS-AChE propidium iodide displacement (%)” value ([3]; [I] = 50 μM) was 56.2% and 56.238 ± 1.338%, the “neurotoxicity (MTT, cell population and morphology)” value [4] was “non-neurotoxic” and the viability at 5 µM [5] was 61.4%. The viability at 10 µM [5] was 74%, the viability at 20 µM [5] was 83.6% and the “% Aβ aggregation inhibition, self-induced” value (Aβ1–42) was 22–69%. The “% Aβ aggregation inhibition, hAChE-induced” value (Aβ1–42 with hAChE) was 41–81%, the “weight loss (initial, in some animals)” value (female Wistar rats; 100–500 mg/kg, p.o., regained in 10–12 days) was 12–25% and the “organ histopathology (kidney, liver, lungs, heart; H&E)” value (female Wistar rats; after 14 days) was “normal tissue appearance”. The “hepatic and renal function tests” value (female Wistar rats; blood samples after acute toxicity study) was “within the range”, the “% spontaneous alterations” value [6] was “significant increase in % spontaneous alterations in a dose-dependent manner” and the “AChE level (hippocampal)” value (AChE) was “dose-dependent decrease”. For the same compound, the ACh brain level (acetylcholine (ACh)) was “dose-dependent increase”, the MDA level (malonaldehyde (MDA)) was “declines in MDA” and the SOD level [7] was “elevation of SOD levels”. The GSH level (glutathione (GSH)) was “elevation of both the biomarkers”, the catalase activity (catalase) was “elevation of both the biomarkers” and the “neuronal morphology (dentate gyrus)” value [8] was “less disordered neuronal arrangement and vacuolar fibrosis”. For the same compound, the “neuronal density (dentate gyrus)” value ([8]; vs Aβ1–42-treated group) was “higher”, the “Pe(exp) PAMPA–BBB” value [9] was 5.643 10^–6 cm/s and the Papp (in vitro) was 56.43 ± 0.21 nm/s. For the same compound, the “escape latency time (ELT)” value [10] was “significant change as compared to the Aβ group”, the “time spent in the platform zone” value [10] was “significantly (^bp < 0.001) higher” and the “total number of entries to the platform zone” value [10] was “significantly (^bp < 0.001) different from the Aβ-treated animal group”.
